Experimental findings from ChEMBL document CHEMBL3098100, “Synthesis, characterization and anticancer screening of some novel piperonyl-tetrazole derivatives” (2014) are described below.

The structures appear in SMILES notation. Activity calls are given as the source filed them. The calls are words filed in the database; no cut-off is given here.

Experiment [1] has as its system HepG2. In words: Cytotoxicity against human HepG2 cells assessed as growth inhibition at 10^-5 M after 48 hrs by MTT assay. It counts as functional. Conditions: HepG2, 48 h, read-out: GI.
In experiment [2] the test system is MCF7. In words: Increase of CD44 mRNA expression in human ER positive MCF7 cells by RT-PCR analysis relative to control. It counts as functional.
Experiment [3] deals with MDA-MB-231. In words: Decrease of BRAC1 mRNA expression in human ER negative MDA-MB-231 cells by RT-PCR analysis relative to control. It counts as functional.
For experiment [4], the system named is MCF7. Nature of the experiment: Reduction of BAX mRNA expression in human ER positive MCF7 cells by RT-PCR analysis relative to control. The class given is functional.
In experiment [5] the test system is MDA-MB-231. In words: Reduction of BAX mRNA expression in human ER negative MDA-MB-231 cells by RT-PCR analysis relative to control. The class given is functional, cell-based.
In experiment [6] the test system is MCF7. In words: Decrease of p53 and KRT19 mRNA expression in human ER positive MCF7 cells by RT-PCR analysis relative to control. It counts as functional, cell-based.
In experiment [7] the test system is MCF7. In words: Decrease of BRAC1 mRNA expression in human ER positive MCF7 cells by RT-PCR analysis relative to control. It counts as functional, cell-based.
For experiment [8], the system named is MDA-MB-231. Nature of the experiment: Decrease of CD44 mRNA expression in human ER negative MDA-MB-231 cells by RT-PCR analysis relative to control. The class given is functional, cell-based.

`COc1ccc(/C=N/NC(=O)Cn2nnnc2-c2ccc3c(c2)OCO3)cc1`: the inhibition of growth at 10 µM in experiment [1] came to 0%.

For the compound `CCOc1ccc(/C=N/NC(=O)Cn2nnnc2-c2ccc3c(c2)OCO3)cc1`, the inhibition of growth at 10 µM in experiment [1] came to 0%.

On to `CCc1ccc(/C=N/NC(=O)Cn2nnnc2-c2ccc3c(c2)OCO3)cc1`, for which the inhibition of growth at 10 µM in experiment [1] was 0%.

On to `COc1ccc(/C=N/NC(=O)Cn2nnnc2-c2ccc3c(c2)OCO3)c(OC)c1`, for which the “fold change (FC)” value in experiment [2] was 2; in experiment [3], 2; in experiment [4] it was over 2. The outcome in experiment [5], in experiment [6], in experiment [7] and in experiment [8] was Active. Besides, the inhibition of growth at 10 µM in experiment [1] is 0%.

Take `O=C(Cn1nnnc1-c1ccc2c(c1)OCO2)N/N=C/c1ccc(Cl)cc1`: the inhibition of growth at 10 µM in experiment [1] came to 0%.

On to `O=C(Cn1nnnc1-c1ccc2c(c1)OCO2)N/N=C/c1ccc([N+](=O)[O-])cc1`, for which the result in experiment [2], in experiment [5], in experiment [6], in experiment [7] and in experiment [8] was Active. The results for the “fold change (FC)” value in experiment [3] and in experiment [4] were 2 and over 2, respectively. Besides, in experiment [1], the inhibition of growth at 10 µM was found to be 0%.

On to `CCOc1ccccc1/C=N/NC(=O)Cn1nnnc1-c1ccc2c(c1)OCO2`, for which the inhibition of growth at 10 µM in experiment [1] came out at 0%.

Turning to `O=C(Cn1nnnc1-c1ccc2c(c1)OCO2)N/N=C/c1ccco1`, the inhibition of growth at 10 µM in experiment [1] amounted to 0%.

For `O=C(Cn1nnnc1-c1ccc2c(c1)OCO2)N/N=C/c1ccccc1`, the inhibition of growth at 10 µM in experiment [1] is 0%.

For the compound `O=C(Cn1nnnc1-c1ccc2c(c1)OCO2)N/N=C/c1cccc([N+](=O)[O-])c1`, the outcome in experiment [2], in experiment [5], in experiment [6], in experiment [7] and in experiment [8] was Active. The entries for the “fold change (FC)” value in experiment [3] and in experiment [4] were 2 and over 2, respectively. In experiment [1], the inhibition of growth at 10 µM is 0%.

As to `O=C(Cn1nnnc1-c1ccc2c(c1)OCO2)N/N=C/c1ccccc1[N+](=O)[O-]`, the “fold change (FC)” value in experiment [2] was 2; in experiment [3], 2; in experiment [4], over 2. For the same compound, the outcome in experiment [5], in experiment [6], in experiment [7] and in experiment [8] was Active. Further, in experiment [1], the inhibition of growth at 10 µM was 0%.

As for `Cc1ccc(/C=N/NC(=O)Cn2nnnc2-c2ccc3c(c2)OCO3)cc1`, the inhibition of growth at 10 µM in experiment [1] stood at 0%.

Regarding `O=C(Cn1nnnc1-c1ccc2c(c1)OCO2)N/N=C/c1cccs1`, in experiment [1], the inhibition of growth at 10 µM was 0%.

Take `O=C(Cn1nnnc1-c1ccc2c(c1)OCO2)N/N=C/c1ccccc1Cl`: the outcome in experiment [2], in experiment [5], in experiment [6], in experiment [7] and in experiment [8] was Active. Also, the “fold change (FC)” value is 2 in experiment [3] and over 2 in experiment [4]. In addition, in experiment [1], the inhibition of growth at 10 µM was 0%.
